Source: ChEMBL document CHEMBL3259581 (Eur J Med Chem, 2014)

Legend:
[1] = target: T1, Prostaglandin G/H synthase 1 (Ovis aries) (UniProt P05979); test: Inhibition of ovine COX1 using arachidonic acid as substrate at 30 uM preincubated for 10 mins before substrate addition measured after 5 mins by EIA
T1 sequence (whole entry): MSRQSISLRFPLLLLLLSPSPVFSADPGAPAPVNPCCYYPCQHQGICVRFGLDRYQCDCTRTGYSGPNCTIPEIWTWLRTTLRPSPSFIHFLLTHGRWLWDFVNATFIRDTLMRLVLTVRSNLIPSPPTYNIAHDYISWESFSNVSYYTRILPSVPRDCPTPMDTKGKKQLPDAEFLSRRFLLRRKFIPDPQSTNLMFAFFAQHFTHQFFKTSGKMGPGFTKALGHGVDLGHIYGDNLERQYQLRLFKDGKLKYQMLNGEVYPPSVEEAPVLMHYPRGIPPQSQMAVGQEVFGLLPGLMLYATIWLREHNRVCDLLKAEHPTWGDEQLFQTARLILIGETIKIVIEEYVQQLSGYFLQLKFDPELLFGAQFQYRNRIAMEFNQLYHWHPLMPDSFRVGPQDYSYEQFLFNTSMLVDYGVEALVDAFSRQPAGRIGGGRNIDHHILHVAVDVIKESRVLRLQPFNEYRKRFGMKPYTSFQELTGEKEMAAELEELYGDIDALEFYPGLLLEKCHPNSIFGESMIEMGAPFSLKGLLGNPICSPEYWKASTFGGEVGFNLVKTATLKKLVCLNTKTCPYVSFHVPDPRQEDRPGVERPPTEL

[2] = target: T2, Prostaglandin G/H synthase 2 (Ovis aries) (UniProt P79208); details: 30 uM
T2 sequence (whole entry): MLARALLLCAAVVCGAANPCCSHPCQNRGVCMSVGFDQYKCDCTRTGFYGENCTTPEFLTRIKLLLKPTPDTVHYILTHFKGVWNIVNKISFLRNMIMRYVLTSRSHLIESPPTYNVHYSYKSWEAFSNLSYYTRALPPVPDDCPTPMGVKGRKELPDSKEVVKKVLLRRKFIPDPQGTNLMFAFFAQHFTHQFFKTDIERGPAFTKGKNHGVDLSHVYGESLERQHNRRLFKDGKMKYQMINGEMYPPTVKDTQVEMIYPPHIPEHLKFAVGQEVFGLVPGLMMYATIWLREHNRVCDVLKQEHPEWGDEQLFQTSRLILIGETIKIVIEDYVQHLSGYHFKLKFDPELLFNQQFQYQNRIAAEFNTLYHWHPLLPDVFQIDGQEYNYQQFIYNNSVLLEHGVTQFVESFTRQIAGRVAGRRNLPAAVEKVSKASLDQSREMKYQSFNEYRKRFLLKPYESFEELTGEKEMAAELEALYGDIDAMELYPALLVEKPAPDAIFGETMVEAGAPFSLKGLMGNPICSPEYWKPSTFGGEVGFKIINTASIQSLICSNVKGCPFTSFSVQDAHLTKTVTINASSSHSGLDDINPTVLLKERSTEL
Description: Inhibition of ovine COX2 using arachidonic acid as substrate at 30 uM preincubated for 10 mins before substrate addition measured after 5 mins by EIA

[3] = system: Rattus norvegicus; test: Antiinflammatory activity in Sprague-Dawley rat assessed as inhibition of carrageenan-induced paw edema at 150 umol/kg, po administered 1 hr before carrageenan challenge measured after 3 hrs; format: functional
[4] = system: Rattus norvegicus; test: Antiinflammatory activity in Sprague-Dawley rat assessed as inhibition of carrageenan-induced paw edema at 150 umol/kg, po administered 1 hr before carrageenan challenge measured after 5 hrs; format: functional
[5] = target: T3, Prostaglandin G/H synthase 1 (Ovis aries, UniProt P05979); test: Inhibition of ovine COX1 using arachidonic acid as substrate preincubated for 10 mins before substrate addition measured after 5 mins by EIA
T3 sequence (P05979 whole entry): T1 sequence (whole entry)

| Compound | inhibition [1] | inhibition [2] | inhibition in vivo at 150 µmol/kg [3] | inhibition in vivo at 150 µmol/kg [4] | IC50 [5] |
| --- | --- | --- | --- | --- | --- |
| Cc1cc(OCc2ccccc2Br)c2c(c1)C(=O)c1cccc(OCc3ccccc3Br)c1C2=O | 27.2% | 62% |  |  |  |
| CC(C)Cc1ccc(C(C)C(=O)O)cc1 (stereo not drawn) [IBUPROFEN] |  |  | 32.3% | 43.5% |  |
| CCOc1cccc2c1C(=O)c1c(OCC)cc(C)cc1C2=O | 43.7% | 55.5% |  |  |  |
| COc1cccc2c1C(=O)c1c(OC)cc(C)cc1C2=O | 59.2% | 62.1% |  |  |  |
| CC(=O)c1c(C)cc2cccc(OCc3ccccc3Br)c2c1O | 63.6% | 83.1% | 25.5% | 46.5% | 24.5 µM |
| Cc1cc(OCc2ccc(I)cc2)c2c(c1)C(=O)c1cccc(OCc3ccc(I)cc3)c1C2=O | 64.2% | 77.8% | 36.1% | 54.6% | > 30 µM |
| CCOc1cccc2cc(C)c(C(C)=O)c(O)c12 | 62.1% | 54.2% |  |  |  |
| CC(=O)c1c(C)cc2cccc(OC(C)C)c2c1O | 70.9% | 62.6% |  |  |  |
| COc1cccc2cc(C)c(C(C)=O)c(O)c12 | 69.8% | 61.7% |  |  |  |
| CC(=O)c1c(C)cc2cccc(OCc3cccc(Cl)c3)c2c1O | 67.1% | 82.1% | 26.6% | 37% | 22.2 µM |
| C=CCOc1cccc2c1C(=O)c1c(OCC=C)cc(C)cc1C2=O | 44.3% | 81.5% | 35.6% | 50.9% | > 30 µM |
| COc1c(C(C)=O)c(C)cc2cccc(O)c12 | 65.5% | 55.5% |  |  |  |
| CC(=O)c1c(C)cc2cccc(O)c2c1OCc1ccccc1Br | 37.2% | 67.5% |  |  |  |
| CCCOc1cccc2c1C(=O)c1c(OCCC)cc(C)cc1C2=O | 39.6% | 58.7% |  |  |  |
| CCCCOc1cccc2c1C(=O)c1c(OCCCC)cc(C)cc1C2=O | 26% | 42% |  |  |  |
| Cc1cc(OCc2ccccc2)c2c(c1)C(=O)c1cccc(OCc3ccccc3)c1C2=O | 41.4% | 76.5% | 28.2% | 45.1% | > 30 µM |
| COCOc1cccc2cc(C)c(C(C)=O)c(O)c12 | 80.6% | 75% | 36.4% | 55.8% | 17.2 µM |
| CCOc1c(C(C)=O)c(C)cc2cccc(O)c12 | 58.4% | 42.9% |  |  |  |
| CC(=O)c1c(C)cc2cccc(O)c2c1O [NEPODIN] | 68.2% | 59.4% |  |  | 27.4 µM |
| CC(=O)c1c(C)cc2cccc(OCc3ccccc3)c2c1O | 83.4% | 89.9% | 30.3% | 54.2% | 15.2 µM |
| CCCCOc1cccc2cc(C)c(C(C)=O)c(O)c12 | 28.5% | 31.9% |  |  |  |
| CCCOc1c(C(C)=O)c(C)cc2cccc(O)c12 | 51.4% | 47% |  |  |  |
| CC(=O)c1c(C)cc2cccc(O)c2c1OC(C)C | 62.2% | 54.9% |  |  |  |
| CC(=O)c1c(C)cc2cccc(O)c2c1OCc1ccccc1 | 60.2% | 68.2% |  |  |  |
| CCCOc1cccc2cc(C)c(C(C)=O)c(O)c12 | 53.5% | 35.4% |  |  |  |
| Cc1cc(OCc2cccc(Cl)c2)c2c(c1)C(=O)c1cccc(OCc3cccc(Cl)c3)c1C2=O | 25.4% | 61% |  |  |  |
| CCCCOc1c(C(C)=O)c(C)cc2cccc(O)c12 | 40.2% | 37.9% |  |  |  |
| CC(=O)c1c(C)cc2cccc(O)c2c1OCc1cccc(Cl)c1 | 34.9% | 64.9% |  |  |  |
| COCOc1c(C(C)=O)c(C)cc2cccc(O)c12 | 67.1% | 61.5% |  |  |  |
| Cc1cc(O)c2c(c1)C(=O)c1cccc(O)c1C2=O [CHRYSOPHANOL] | 29.4% | 42.1% |  |  | 46.2 µM |
